According to paper PMC10350920, “Development of a 2,4-Diaminothiazole Series for the Treatment of Human African Trypanosomiasis Highlights the Importance of Static–Cidal Screening of Analogues” (Journal of Medicinal Chemistry, 2023):
Several values for one entry are separate records, joined by “and”; a condition that tells them apart may be missing. Identical values can stand only once. Like-named read-outs stand apart in the source and are kept apart here.

How the values were obtained:
[1] = Pharmacokinetics in NMRI mice; format: in vivo, female NMRI mice
Protocol: To determine compound exposure, compounds were dosed by gavage (16, 38) at 10 mg kg^–1 free base (16, 38), dose volume; and 5 mL kg^–1 (16, 38), dose vehicle (10% DMSO/40% PEG400/50% Milli-Q) to female NMRI mice, n = 3/dose level (16), or Sprague Dawley rats (38). Blood samples were taken from each mouse/rat at 5, 15, and 30 min, 1, 2, 4, 6, and 8 h postdose and mixed with two volumes of distilled water. After suitable sample preparation, the concentration of the test compound in blood was determined by UPLC–MS/MS using a Quattro Premier XE (Waters, USA). Pharmacokinetic parameters were derived from the mean blood concentration–time curve using PKsolutions software v 2.0 (Summit Research Services, USA).

[2] = Equilibrium dialysis, free fraction in brain; format: in vitro ADME, mouse
Protocol: In brief, a 96-well equilibrium dialysis apparatus was used to determine the free fraction in plasma and the brain (HT Dialysis LLC, Gales Ferry, CT). Isotonic buffer was prepared using 8.69 g of Na2HPO4, 1.9 g of KH2PO4, and 4.11 g of NaCl dissolved in 1 L of Milli-Q water, and the pH was adjusted to 7.4. Artificial CSF was prepared using 3.652 g of NaCl, 93.2 mg of KCl, 119.96 mg of MgCl2, 92.61 mg of CaCl2, and 268 mg of Na2HPO4 heptahydrate dissolved in 0.5 L of water, and the pH was adjusted to 7.4. Membranes [12–14 (plasma) or 6–9 (brain) kDA cutoff] were conditioned in deionized water for 60 min, followed by conditioning in 80:20 deionized water/ethanol for 20 min, and then rinsed in isotonic buffer (plasma) or […] (brain) before use. Female CD1 mouse plasma was defrosted and centrifuged for 10 min at 3000 rpm (Allegra X12-R, Beckman Coulter, USA). The control mouse brain was homogenized in two volumes of artificial CSF in a Covaris S2 acoustic homogenizer. […] All samples were analyzed by means of UPLC/MS/MS on a Quattro Premier XE or Micro TQs mass spectrometer (Waters Corporation, USA). The unbound fraction was determined as the ratio of the peak area in the buffer to that in the matrix.

[3] = tested on: BSF T. b. brucei “single marker” S427; assay: Drug sensitivity assay with bloodstream-form T. brucei; format: cell-based; details: for EC50: mean values, number of replicates in parentheses
Protocol: (§1) Drug sensitivity assays with BSF T. b. brucei “single marker” S427 and human MRC-5 fibroblasts were conducted as previously described.[43]

[4] = tested on: human MRC-5 fibroblasts; assay: Mammalian cell counter screen (MRC-5); format: cell-based; details: for SI: selectivity index (EC50 MRC5/EC50 T. brucei)
Protocol: as §1

[5] = Mouse liver microsomal intrinsic clearance; format: in vitro ADME
Procedure, shortened: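 Compound (0.5 μM) incubated with liver microsomes (0.5 mg/mL, 50 mM potassium phosphate pH 7.4) and excess NADPH; samples quenched at 0–30 min and analysed by UPLC–MS/MS. Rate constant from exponential decay of compound/internal standard ratio; CLint scaled with 52.5 mg protein/g liver.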

[6] = tested on: BSF trypanosomes; assay: Static–cidal assay; format: cell-based, T. brucei; details: lower concentrations cytostatic
Excerpt: To complement our established T. brucei cell-based screen, in the course of these studies, we developed an assay that allows discrimination of compounds that are cytostatic from those that are cytocidal.[15] In this assay, static and cidal compounds are categorized by analysis of growth curves, with cidal compounds causing a decrease in parasite numbers. Commonly, phenotypic screens with T. brucei are end-point assays with live-cell indicators used as the final readout. In our […] assay, bloodstream trypanosomes are grown in the presence of test compounds for 3 days with a starting cell density well below the assay limit of detection, thus making it impossible to distinguish cidal from static compounds. To assess if compounds within this diaminothiazole series kill trypanosomes or merely stop parasite growth, we profiled a panel of compounds in our static–cidal assay. […] Similarly in rats, the concentration would be below the level for cidal activity.
An assay to assess initial indications of the cidal nature of the compound series was conducted as previously reported.[15] […] After 4 h, the time = 0 plate was read using a PerkinElmer Victor 3 plate reader (excitation 528 nm; emission 590 nm). […]

[7] = 100 mg kg^–1 IP, assuming linearity of exposure

Compound: (4-Amino-2-(cyclohexylamino)thiazol-5-yl)(2,6-difluorophenyl)methanone [Compound 16]
- AUC ([1]; NMRI mice, IP, 10 mg kg^–1): 66,000 ng mL h^–1
- Tmax ([1]; NMRI mice, IP, 10 mg kg^–1): 15 min
- AUC ([1]; NMRI mice, PO, 10 mg kg^–1): 5700 ng mL h^–1
- Cmax ([1]; NMRI mice, PO, 10 mg kg^–1): 33 ng mL^–1
- Tmax ([1]; NMRI mice, PO, 10 mg kg^–1): 30 min
- brain free fraction (Fu, fraction unbound) ([2]; brain): 0.0063
- EC50 [3]: 0.11 µM
- EC50 ([4]; mean values, number of replicates in parentheses, read-out: MRC-5 EC50): 1.2 µM
- SI [4]: 11
- CLint (mouse) [5]: 15 mL·min/g
- concentration that is cidal (reduction in parasite number) [6]: above 5.6 μM

Compound: CC(C)(O)CC(=O)c1sc(Nc2ccc(F)c(F)c2)nc1N [Compound 38, 1-(4-Amino-2-((3,4-difluorophenyl)amino)thiazol-5-yl)-3-hydroxy-3-methylbutan-1-one]
- free Cmax in blood, extrapolated [1, 7]: 16 µM
- free Cmax, extrapolated [1, 7]: 5200 ng mL^–1
- Cmax (total blood) ([1]; NMRI mice, IP, 50 mg kg^–1): 18,000 ng mL^–1
- Cmax ([1]; female, NMRI, mouse, whole blood, mice, IP, 50 mg kg^–1, read-out: total blood Cmax): 55 µM
- AUC ([1]; female, mouse, whole blood, NMRI mice, IP, 50 mg kg^–1, read-out: AUC (converted)): 31700 ng·h/mL
- Tmax ([1]; female, mouse, whole blood, NMRI mice, IP, 50 mg kg^–1, read-out: Tmax): 30 min
- free Cmax in the brain, extrapolated ([1]; mice, 100 mg kg^–1 IP): 4.6 µM
- fraction unbound at 5 h, 10 μg mL^–1 ([2]; mouse, brain homogenate, pH 7.4, read-out: brain free fraction (Fu, fraction unbound)): 0.0313
- EC90 ([3]; Trypanosoma brucei, T. brucei): 0.131 µg/mL and 400 nM
- EC50 ([3]; Trypanosoma brucei): 0.18 µM
- SI [4]: 256
- CLint (mouse) [5]: 2.2 mL·min/g
- concentration that is cidal (reduction in parasite number) [6]: 50 µM
